For the experiment, the target named is human ICMT (Homo sapiens (Human), UniProt O60725). Put plainly: ICMT biochemical assay (Methyltransferase-Glo). As for the experimental part:
Recombinant human ICMT was prepared by infection of Sf9 cells with a recombinant baculovirus containing the entire open reading frame of the human ICMT cDNA.
Cells producing ICMT were harvested 66 hours post-infection. The cells are homogenized and resuspended in 5 mM NaHPO4 (pH 7.0), and a cocktail of protease inhibitors. The membrane was pelleted, after removal of nuclei and debris, at 100,000×g for 1 hour. Membranes were resuspended in 5 mM NaHPO4 (pH 7.0) with 5 mM EDTA at 10-12 mg/ml. The suspension was stored at −80° C. in multiple aliquots.
An ICMT enzymatic assay was developed using Promega's Methyltransferase-GloTMreagents. In the assay, ICMT catalyzes the methylation of the N-Acetyl-S-farnesyl-L-cysteine by transferring a methyl group from SAM to the farnesylated cysteine and further converts the SAM to SAH. The methyltransferase activity is measured based on the amount of SAH produced from the reaction through the use of coupling enzymes that convert the SAH to ATP. The MTase-Glo detection solution then catalyzes the formation of light from ATP.
A final concentration of 2.0 μM and 20 μM of SAM and peptide were added and further incubated for 90 minutes at room temperature before adding the MTase Glo and detection reagent. Reaction signals were detected using microplate readers on luminescent mode (Satire Tecan). The IC50 was determined by nonlinear regression, using GraphPad Prism version, 5.03.

The mark [1] stands for this setting: ICMT membrane extract from Sf-9 cells, 30 min preincubation, 90 min reaction.

SMILES strings stand for the structures. Where “and” joins values, the source holds several entries; their conditions need not be identical. Equal values may be shown once.

Chain of human ICMT (O60725 whole entry): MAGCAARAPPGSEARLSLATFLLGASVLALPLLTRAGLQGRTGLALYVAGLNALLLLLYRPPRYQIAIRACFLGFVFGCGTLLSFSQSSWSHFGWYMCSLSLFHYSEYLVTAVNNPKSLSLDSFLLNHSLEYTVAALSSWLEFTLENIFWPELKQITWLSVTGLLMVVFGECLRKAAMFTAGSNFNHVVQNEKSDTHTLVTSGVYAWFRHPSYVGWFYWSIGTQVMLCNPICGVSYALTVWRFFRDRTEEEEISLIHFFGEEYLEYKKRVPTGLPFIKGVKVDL

What is called IC50 is the concentration needed to halve the response being measured. Low values mean greater potency, high ones weaker potency. As to `Cc1cc(C#N)ccc1O[C@H](C)COc1cccc(-n2ccnc2C2CC2)c1` [Compound 68, (R)-4-((1-(3-(2-cyclopropyl-1H-imidazol-1-yl)phenoxy)propan-2-yl)oxy)-3-methylbenzonitrile], the IC50 under setting [1] was 1.5 nM and 13 nM.

As to `COc1cc(C#N)ccc1O[C@@H](C)COc1cccc(-n2ccnc2C)c1` [Compound 72, (S)-3-methoxy-4-((1-(3-(2-methyl-1H-imidazol-1-yl)phenoxy)propan-2-yl)oxy)benzonitrile], under setting [1], it took 4.5 nM to reach half-maximal inhibition (IC50).

Compound `Cc1nccn1-c1cccc(OCCOc2ccc(C#N)nn2)c1` [Compound 73, 6-(2-(3-(2-methyl-1H-imidazol-1-yl)phenoxy)ethoxy)pyridazine-3-carbonitrile] yielded an IC50 under setting [1] of 950 nM.

On to `Cc1nccn1-c1cccc(OCCOc2ncc(C#N)cc2F)c1` [Compound 74, 5-fluoro-6-(2-(3-(2-methyl-1H-imidazol-1-yl)phenoxy)ethoxy)nicotinonitrile], for which the IC50 under setting [1] worked out at 65 nM.

`Cn1nccc1-c1cccc(OCCOc2ccc(C#N)cn2)c1` [Compound 75, 6-(2-(3-(1-methyl-1H-pyrazol-5-yl)phenoxy)ethoxy)nicotinonitrile]: under setting [1], the half-inhibitory concentration (IC50) is 60 nM and 62 nM.

`N#Cc1ccc(OCCOc2ccnc(-n3ccnc3C3CC3)c2)c(F)c1` [Compound 76, 4-(2-((2-(2-cyclopropyl-1H-imidazol-1-yl)pyridin-4-yl)oxy)ethoxy)-3-fluorobenzonitrile] yielded an IC50 (unit (nM)) of 0.39 nM. This counts as sub-nanomolar.

Take `COc1cc(C#N)ccc1O[C@H](C)COc1cccc(-n2ccnc2C)c1` [Compound 77, (R)-3-methoxy-4-((1-(3-(2-methyl-1H-imidazol-1-yl)phenoxy)propan-2-yl)oxy)benzonitrile]: the IC50 (unit (nM)) worked out at 0.7 nM.

In turn, `Cc1nccn1-c1cccc(OC[C@H](C)Oc2ccc(C#N)cc2F)c1` [Compound 79, (S)-3-fluoro-4-((1-(3-(2-methyl-1H-imidazol-1-yl)phenoxy)propan-2-yl)oxy)benzonitrile] displayed an IC50 under setting [1] of 31 nM.

On to `Cn1nccc1-c1cccc(OCCOc2ncc(C#N)cc2F)c1` [Compound 82, 5-fluoro-6-(2-(3-(1-methyl-1H-pyrazol-5-yl)phenoxy)ethoxy)nicotinonitrile], for which, under setting [1], the IC50 is 210 nM and 190 nM.

`N#Cc1cnc(OCCOc2cccc(-n3ccnc3C3CC3)c2)c(F)c1` [Compound 83, 6-(2-(3-(2-cyclopropyl-1H-imidazol-1-yl)phenoxy)ethoxy)-5-fluoronicotinonitrile] had an IC50 under setting [1] of 3.7 nM.

Regarding `N#Cc1ccc(OCCOc2cccc(-c3cnoc3)c2)c(F)c1` [Compound 84, 3-fluoro-4-(2-(3-(isoxazol-4-yl)phenoxy)ethoxy)benzonitrile], the IC50 under setting [1] was found to be 28 nM. This IC50 is about 7.6-fold higher than that of the compound before.

For the compound `Cc1nccn1-c1cc(OCCOc2ccc(C#N)cc2)ccn1` [Compound 85, 4-(2-((2-(2-methyl-1H-imidazol-1-yl)pyridin-4-yl)oxy)ethoxy)benzonitrile], under setting [1], half-maximal inhibition (IC50) was put at 15 nM. Against the preceding compound, the IC50 is about 1.9-fold lower.

On to `Cc1nccn1-c1cccc(OCCOc2ccc(C#N)cc2F)n1` [Compound 86, 3-fluoro-4-(2-((6-(2-methyl-1H-imidazol-1-yl)pyridin-2-yl)oxy)ethoxy)benzonitrile], for which the concentration for half-maximal inhibition (IC50) under setting [1] was found to be 17 nM.

For the compound `Cc1nccn1-c1cc(OCCOc2ncc(C#N)cc2F)ccc1F` [Compound 87, 5-fluoro-6-(2-(4-fluoro-3-(2-methyl-1H-imidazol-1-yl)phenoxy)ethoxy)nicotinonitrile], it took 33 nM to reach half-maximal inhibition under setting [1] (IC50).

Under setting [1], `N#Cc1ccc(OCCOc2ccnc(-n3ccnc3C3CC3)c2)cc1` [Compound 89, 4-(2-((2-(2-cyclopropyl-1H-imidazol-1-yl)pyridin-4-yl)oxy)ethoxy)benzonitrile] gave an IC50 of 2.8 nM. This IC50 is about 12-fold lower than that of the compound before.

Under setting [1], `N#Cc1cnc(OCCOc2ccnc(-n3ccnc3C3CC3)c2)c(F)c1` [Compound 90, 6-(2-((2-(2-cyclopropyl-1H-imidazol-1-yl)pyridin-4-yl)oxy)ethoxy)-5-fluoronicotinonitrile] came in with an IC50 of 37 nM. This IC50 lies about 13-fold higher than the previous one.

`Cc1nccn1-c1cc(OCCOc2ncc(C#N)cc2F)ccn1` [Compound 91, 5-fluoro-6-(2-((2-(2-methyl-1H-imidazol-1-yl)pyridin-4-yl)oxy)ethoxy)nicotinonitrile] showed an IC50 under setting [1] of 120 nM.

Turning to `Cn1nccc1-c1cncc(OCCOc2ccc(C#N)cc2F)c1` [Compound 92, 3-fluoro-4-(2-((5-(1-methyl-1H-pyrazol-5-yl)pyridin-3-yl)oxy)ethoxy)benzonitrile], under setting [1], the IC50 fell in the range of 300 to 1000 nM.

In turn, `Cn1nccc1-c1cc(OCCOc2ccc(C#N)cc2)ccc1F` [Compound 93, 4-(2-(4-fluoro-3-(1-methyl-1H-pyrazol-5-yl)phenoxy)ethoxy)benzonitrile] returned an IC50 under setting [1] of 6.6 nM.

`Cn1nccc1-c1cc(F)cc(OCCOc2ccc(C#N)cc2)c1` [Compound 94, 4-(2-(3-fluoro-5-(1-methyl-1H-pyrazol-5-yl)phenoxy)ethoxy)benzonitrile] displayed an IC50 under setting [1] of 1.6 nM.

Compound `Cc1nncn1-c1cc(OCCOc2ccc(C#N)cc2F)ccn1` [Compound 95, 3-fluoro-4-(2-((2-(3-methyl-4H-1,2,4-triazol-4-yl)pyridin-4-yl)oxy)ethoxy)benzonitrile] returned an IC50 under setting [1] of 10 nM.

On to `Cn1nccc1-c1ccc(F)c(OCCOc2ccc(C#N)cc2)c1` [Compound 96, 4-(2-(2-fluoro-5-(1-methyl-1H-pyrazol-5-yl)phenoxy)ethoxy)benzonitrile], for which the half-maximal inhibitory concentration (IC50) under setting [1] lay in the range of 400 to 3000 nM.

Turning to `Cn1nccc1-c1cc(OCCOc2ncc(C#N)cc2F)ccn1` [Compound 97, 5-fluoro-6-(2-((2-(1-methyl-1H-pyrazol-5-yl)pyridin-4-yl)oxy)ethoxy)nicotinonitrile], the half-maximal inhibitory concentration (IC50) under setting [1] lay in the range of 470 to 1000 nM.

On to `Cn1nccc1-c1cc(OCCOc2ccc(Cl)cc2C#N)ccn1` [Compound 98, 5-chloro-2-(2-((2-(1-methyl-1H-pyrazol-5-yl)pyridin-4-yl)oxy)ethoxy)benzonitrile], for which, under setting [1], the 50% inhibitory concentration (IC50) worked out at 10 nM.

The compound `Cc1nccn1-c1cc(OCCOc2ccc(Cl)cc2C#N)ccn1` [Compound 99, 5-chloro-2-(2-((2-(2-methyl-1H-imidazol-1-yl)pyridin-4-yl)oxy)ethoxy)benzonitrile] had an IC50 under setting [1] of 2.6 nM.

Take `Cn1nccc1-c1cc(OCCOc2ccc(C#N)cc2Cl)ccn1` [Compound 100, 3-chloro-4-(2-((2-(1-methyl-1H-pyrazol-5-yl)pyridin-4-yl)oxy)ethoxy)benzonitrile]: the IC50 under setting [1] turned out to be 1.8 nM.

For `Cn1nccc1-c1cc(OCCOc2ccc(Cl)cc2F)ccn1` [Compound 101, 4-(2-(4-chloro-2-fluorophenoxy)ethoxy)-2-(1-methyl-1H-pyrazol-5-yl)pyridine], the IC50 under setting [1] is 29 nM.

For the compound `Cc1nccn1-c1cccc(OCCOc2ccc(Cl)cc2F)c1` [Compound 102, 1-(3-(2-(4-chloro-2-fluorophenoxy)ethoxy)phenyl)-2-methyl-1H-imidazole], the midpoint of inhibition under setting [1], the IC50, lay at 68 nM.

Take `Cc1nccn1-c1cc(OCCOc2ccc(Cl)cc2F)ccn1` [Compound 103, 4-(2-(4-chloro-2-fluorophenoxy)ethoxy)-2-(2-methyl-1H-imidazol-1-yl)pyridine]: under setting [1], the IC50 was determined as 3.1 nM.

`Cc1nccn1-c1cc(OCCOc2ccc(Br)cc2F)ccn1` [Compound 104, 4-(2-(4-bromo-2-fluorophenoxy)ethoxy)-2-(2-methyl-1H-imidazol-1-yl)pyridine] came in with an IC50 under setting [1] of 1.7 nM.

For the compound `Cn1nccc1-c1cc(F)cc(OCCOc2ccc(C#N)cc2F)c1` [Compound 105, 3-fluoro-4-(2-(3-fluoro-5-(1-methyl-1H-pyrazol-5-yl)phenoxy)ethoxy)benzonitrile], it took 6 nM to reach half-maximal inhibition under setting [1] (IC50).

Regarding `Cn1nccc1-c1cccc(OCCOc2ccc(C#N)cc2F)n1` [Compound 106, 3-fluoro-4-(2-((6-(1-methyl-1H-pyrazol-5-yl)pyridin-2-yl)oxy)ethoxy)benzonitrile], the IC50 under setting [1] lay in the range of 300 to 1000 nM.

Turning to `Cn1nccc1-c1cc(OCCOc2ncc(C#N)cc2F)ccc1F` [Compound 107, 5-fluoro-6-(2-(4-fluoro-3-(1-methyl-1H-pyrazol-5-yl)phenoxy)ethoxy)nicotinonitrile], 150 nM corresponded to half-maximal inhibition under setting [1] (IC50).

`Cc1nccn1-c1cc(OCCOc2ccc(C#N)cc2)ccc1F` [Compound 108, 4-(2-(4-fluoro-3-(2-methyl-1H-imidazol-1-yl)phenoxy)ethoxy)benzonitrile] showed an IC50 under setting [1] of 51 nM.

In the case of `Cc1nccn1-c1cc(OCCOc2ccc(C#N)cn2)ccc1F` [Compound 109, 6-(2-(4-fluoro-3-(2-methyl-1H-imidazol-1-yl)phenoxy)ethoxy)nicotinonitrile], under setting [1], the half-inhibitory concentration (IC50) amounted to 170 nM.

The compound `Cn1nccc1-c1cccc(OCCOc2ccc(Cl)cc2)c1` [Compound 110, 5-(3-(2-(4-chlorophenoxy)ethoxy)phenyl)-1-methyl-1H-pyrazole] yielded an IC50 under setting [1] of 270 nM.

`Cc1nccn1-c1cccc(OCCOc2ccc(C#N)cc2C(F)(F)F)c1` [Compound 111, 4-(2-(3-(2-methyl-1H-imidazol-1-yl)phenoxy)ethoxy)-3-(trifluoromethyl)benzonitrile] registered an IC50 under setting [1] of 180 nM.

Take `Cc1nccn1-c1cccc(OCCOc2ccc(Cl)cc2)c1` [Compound 112, 1-(3-(2-(4-chlorophenoxy)ethoxy)phenyl)-2-methyl-1H-imidazole]: 250 nM corresponded to half-maximal inhibition under setting [1] (IC50).

Consider `Cn1nccc1-c1cc(OCCOc2ccc(C#N)cc2F)ccc1F` [Compound 113, 3-fluoro-4-(2-(4-fluoro-3-(1-methyl-1H-pyrazol-5-yl)phenoxy)ethoxy)benzonitrile], for which the IC50 under setting [1] was found to be 22 nM.

The values are drawn from US11834430B2, “Compounds useful as inhibitors of isoprenylcysteine carboxyl methyltransferase” (AGENCY FOR SCIENCE, TECHNOLOGY AND RESEARCH, priority 2017, dated 2023).
